Measured values published in the supplement of paper PMC10883282.
Where a name gives a salt, the structure may show the parent alone.

Columns and labels:
Assay in all cases: relative viability vs DMSO control (72 h) (fraction); higher = more viable cells
[1] = system: HT1080
How it was run: (§1)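 Percent growth from ATPLite readings, averaged over up to triplicate wells, was used as relative viability. Sarcoma cell lines were seeded into 384-well plates for 80–90% confluence, dosed after 24 h, and kept 72 h at 37 °C, 5% CO2. Data were rescaled to a range where 1 is full and 0 is none.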

[2] = system: RD-ES
How it was run: as §1

[3] = system: SYO-1
How it was run: as §1

[4] = system: SW684
How it was run: as §1

[5] = system: KHOS-NP
How it was run: as §1

C=C1C[C@@H]2CC[C@@]34C[C@H]5O[C@H]6[C@@H](O3)[C@H]3O[C@H](CC[C@@H]3O[C@H]6[C@H]5O4)CC(=O)C[C@@H]3[C@@H](OC)[C@@H](C[C@H](O)CN)O[C@H]3C[C@H]3O[C@@H](CC[C@@H]1O2)C[C@@H](C)C3=C [Eribulin Mesylate]
relative viability
Conditions	[1]	[2]	[3]	[4]	[5]
1.37 pM	1.1	1.04	0.915	1.16	1.11
4.1 pM	1.08	1.02	0.709	1.13	1.119
12.3 pM	1	0.953	0.513	1.11	1.113
37 pM	0.959	0.472	0.388	0.994	1.11
0.00011 µM	0.779	0.0831	0.323	1	1.1
0.00033 µM	0.178	0.0672	0.319	0.865	1.05
0.001 µM	0.08945	0.041	0.312	0.806	0.922
0.003 µM	0.06	0.0209	0.354	0.812	0.669
0.009 µM	0.0428	0.0188	0.365	0.822	0.479
0.027 µM	0.043	0.0232	0.345	0.828	0.438
460 fM	1.054	1.02	1.01	1.15	1.1

O=S(=O)(c1cccc2cnccc12)N1CCCNCC1 [Fasudil]
relative viability
Conditions	0.00051 µM	0.00152 µM	0.00457 µM	0.01372 µM	0.04115 µM	0.1235 µM	0.3704 µM	1.111 µM	3.333 µM	10 µM
[1]	1.03	1.03	1.066	1.04	1.03	1.03	1.06	1.06	1.07	1.06
[2]	0.957	0.9873	0.98	0.979	0.9688	0.98	1.009	1.005	1.01	1
[3]	0.95	0.984	0.954	0.9485	0.963	0.954	0.983	0.97	0.968	0.902
[4]	1.02	1.02	0.965	0.945	0.965	0.986	1.02	0.95	0.895	0.761
[5]	1.03	1.04	1.029	1.02	1.01	1.03	1.02	1.05	1.01	1.03

O=C(Nc1nc2cccc(-c3ccc(CN4CCS(=O)(=O)CC4)cc3)n2n1)C1CC1 [Filgotinib]
relative viability
Conditions	[1]	[2]	[3]	[4]	[5]
0.00017 µM	1.11	0.932	0.992	1.13	1.09
0.00051 µM	1.127	0.886	0.995	1.19	1.12
0.00152 µM	1.066	0.957	0.957	1.211	1.1
0.00457 µM	1.06	0.946	0.97	1.19	1.101
0.01372 µM	1.08	0.928	0.907	1.16	1.1
0.04115 µM	1.1	0.944	0.903	1.19	1.1
0.1235 µM	1.08	0.949	0.872	1.18	1.085
0.3704 µM	1.12	0.957	0.843	1.19	1.085
1.111 µM	1.09	0.978	0.7846	1.18	1.08
3.333 µM	1.13	0.924	0.724	1.16	1.1
10 µM	1.12	0.925	0.551	1.09	1.09

COc1cc(Nc2ncc(F)c(Nc3ccc4c(n3)N(COP(=O)(O)O)C(=O)C(C)(C)O4)n2)cc(OC)c1OC [Fostamatinib]
relative viability
Conditions	[1]	[2]	[3]	[4]	[5]
0.00017 µM	1.06	0.9556	0.964	1.14	1.09
0.00051 µM	1.07	0.964	0.953	1.17	1.08
0.00152 µM	1.08	0.9726	0.969	1.15	1.1
0.00457 µM	1.07	0.958	0.958	1.17	1.091
0.01372 µM	1.06	0.972	0.966	1.13	1.07
0.04115 µM	1.06	0.9768	0.922	1.18	1.089
0.1235 µM	1.09	0.943	0.912	1.09	1.09
0.3704 µM	1.101	0.792	0.656	1.03	1.05
1.111 µM	1.06	0.715	0.379	0.877	0.98
3.333 µM	0.937	0.484	0.22	0.618	0.64
10 µM	0.658	0.144	0.167	0.481	0.278
